For this assay, the target named is T1, recombinant human PARP (PARP1) (Homo sapiens, UniProt P09874).
T1 construct: Full length human PARP (PARP1) is assembled from PCR fragments; His6 tag with TEV site, from the pFastBac-HTb vector (own knowledge of the vector); made in house; host or cells: insect cells, baculovirus (Bac-to-Bac, Gibco-BRL)
Briefly: PARP enzyme assay, Method A (radioactivity or 'ELISA' enzyme assay with partially purified enzyme). It counts as biochemical. As to conditions: recombinant human PARP preparation, radioactive or ELISA enzyme assay. In a few lines:
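Partially purified recombinant full-length His-tagged human PARP1, baculovirus-expressed. Radioactive format: 100 μg/mL sonicated DNA, 100 μg/mL histones, 100 mM Tris pH 8.0, 10 mM MgCl2, 200 μM labeled NAD, 10 min 37 °C or 60 min RT, TCA-precipitated counts. ELISA format: 250 μM NAD plus biotin-NAD on histone plates, TMB A450.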

Structures can show the parent of a compound that is named as a salt.

T1 sequence (P09874 whole entry, the tested form may be a part): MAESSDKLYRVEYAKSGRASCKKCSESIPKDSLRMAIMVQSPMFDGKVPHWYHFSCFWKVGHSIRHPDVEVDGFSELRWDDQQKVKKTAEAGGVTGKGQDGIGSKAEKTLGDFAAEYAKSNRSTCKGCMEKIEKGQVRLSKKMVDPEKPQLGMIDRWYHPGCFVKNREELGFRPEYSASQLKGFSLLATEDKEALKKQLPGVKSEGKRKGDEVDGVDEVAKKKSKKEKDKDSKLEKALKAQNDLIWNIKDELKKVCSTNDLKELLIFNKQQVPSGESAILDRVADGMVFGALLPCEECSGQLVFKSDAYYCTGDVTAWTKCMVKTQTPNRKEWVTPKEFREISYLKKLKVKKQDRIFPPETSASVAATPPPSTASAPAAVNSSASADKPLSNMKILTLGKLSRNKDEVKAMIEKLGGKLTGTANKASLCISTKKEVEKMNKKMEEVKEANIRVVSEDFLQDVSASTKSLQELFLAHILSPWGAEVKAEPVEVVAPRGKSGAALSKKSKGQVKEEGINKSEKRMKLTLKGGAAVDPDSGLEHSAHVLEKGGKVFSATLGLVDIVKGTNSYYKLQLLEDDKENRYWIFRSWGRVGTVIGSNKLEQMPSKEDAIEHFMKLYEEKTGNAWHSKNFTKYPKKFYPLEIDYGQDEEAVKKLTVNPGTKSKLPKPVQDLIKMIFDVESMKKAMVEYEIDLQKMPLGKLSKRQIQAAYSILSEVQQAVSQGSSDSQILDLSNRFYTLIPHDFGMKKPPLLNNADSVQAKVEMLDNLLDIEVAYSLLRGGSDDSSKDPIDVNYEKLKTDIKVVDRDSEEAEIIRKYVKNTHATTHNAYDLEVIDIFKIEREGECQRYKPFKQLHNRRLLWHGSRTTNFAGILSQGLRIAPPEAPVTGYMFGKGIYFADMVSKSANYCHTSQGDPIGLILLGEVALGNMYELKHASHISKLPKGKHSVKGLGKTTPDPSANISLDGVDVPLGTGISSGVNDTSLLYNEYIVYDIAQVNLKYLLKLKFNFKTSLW

One may read the IC50 as the concentration that inhibits the measured activity by half. For `CCc1cc(-c2ccc(S(=O)(=O)NCC(O)c3ccccc3)s2)c(C)[nH]c1=O` (stereo not shown) [Example 114, 5-(5-Ethyl-2-methyl-6-oxo-1,6-dihydropyridin-3-yl)thiophene-2-sulfonic acid (2-hydroxy-2-phenylethyl)amide], the IC50 was 0.37 µM.

Consider `CCc1cc(-c2ccc(S(=O)(=O)N3CCN(c4ccccn4)CC3)s2)c(C)[nH]c1=O` [Example 116, 3-Ethyl-6-methyl-5-{5-[(4-pyridin-2-yl)piperazine-1-sulfonyl]thiophen-2-yl}-1H-pyridin-2-one hydrochloride], for which the IC50 is 0.45 µM.

For the compound `CCc1cc(-c2ccc(CN[C@H]3CC[C@H](O)CC3)s2)c(C)[nH]c1=O` [Example 125, 3-Ethyl-5-{5-[(4-hydroxycyclohexylamino)methyl]thiophen-2-yl]-6-methyl-1H-pyridin-2-one hydrochloride], the half-maximal inhibitory concentration (IC50) is 0.45 µM.

On to `CCc1cc(-c2ccc(CN3CCC(O)CC3)s2)c(C)[nH]c1=O` [Example 127, 3-Ethyl-5-[5-(4-hydroxy-piperidin-1-ylmethyl)-thiophen-2-yl]-6-methyl-1H-pyridin-2-one hydrochloride], for which the IC50 came to 0.67 µM.

Consider `CCc1cc(-c2ccc(CNCCO)s2)c(C)[nH]c1=O` [Example 128, 3-Ethyl-5-{5-[(2-hydroxy-ethylamino)-methyl]thiophen-2-yl}-6-methyl-1H-pyridin-2-one hydrochloride], for which the IC50 worked out at 0.46 µM.

For `CCc1cc(-c2ccc(CN3CCC(N4CCCCC4)CC3)s2)c(C)[nH]c1=O` [Example 129, 5-(5-[1,4′]Bipiperidinyl-1′-ylmethyl-thiophen-2-yl)-3-ethyl-6-methyl-1H-pyridin-2-one dihydrochloride], the IC50 is 1.8 µM.

`CCc1cc(-c2ccc(CNc3cc(C(=O)OC)n(C)c3)s2)c(C)[nH]c1=O` [Example 130, 4-{[5-(5-Ethyl-2-methyl-6-oxo-1,6-dihydro-pyridin-3-yl)-thiophen-2-ylmethyl]-amino}-1-methyl-1H-pyrrole-2-carboxylic acid methyl ester dihydrochloride]: the IC50 came out at 1.2 µM.

`CCc1cc(-c2ccc(CN3CCCC(CO)C3)s2)c(C)[nH]c1=O` (stereo not shown) [Example 131, 3-Ethyl-5-[5-(3-hydroxymethyl-piperidin-1-ylmethyl)-thiophen-2-yl]-6-methyl-1H-pyridin-2-one hydrochloride]: the IC50 is 0.47 µM.

`CCc1cc(-c2ccc(CNC3CCN(CC4CCCCC4)CC3)s2)c(C)[nH]c1=O` [Example 132, 5-{5-[(1-Cyclohexylmethyl-piperidin-4-ylamino)-methyl]thiophen-2-yl}-3-ethyl-6-methyl-1H-pyridin-2-one dihydrochloride]: the IC50 came to 1.3 µM.

Regarding `CCc1cc(-c2ccc(CN(C)C3CCN(C)C3)s2)c(C)[nH]c1=O` (stereo not shown) [Example 133, 5-{5-[Methyl(1-methylpyrrolidin-3-yl)amino-methyl]thiophen-2-yl}-3-ethyl-6-methyl-1H-pyridin-2-one dihydrochloride], the IC50 stood at 2.8 µM.

`CCc1cc(-c2ccc(CNC3CCc4ccccc4C3)s2)c(C)[nH]c1=O` (stereo not shown) [Example 134, 3-Ethyl-6-methyl-5-{5-[(1,2,3,4-tetrahydro-naphthalen-2-ylamino)-methyl]thiophen-2-yl}-1H-pyridin-2-one hydrochloride]: the IC50 stood at 0.8 µM.

For `CCc1cc(-c2ccc(CNC3CCC3)s2)c(C)[nH]c1=O` [Example 137, 5-(5-Cyclobutylaminomethyl-thiophen-2-yl)-3-ethyl-6-methyl-1H-pyridin-2-one hydrochloride], the IC50 came to 0.52 µM.

For the compound `CCc1cc(-c2ccc(CNCCOC)s2)c(C)[nH]c1=O` [Example 138, 3-Ethyl-5-{5-[(2-methoxyethylamino)-methyl]thiophen-2-yl}-6-methyl-1H-pyridin-2-one hydrochloride], the IC50 amounted to 0.63 µM.

For `CCc1cc(-c2ccc(CNC3CCN(c4nccc(C(F)(F)F)n4)CC3)s2)c(C)[nH]c1=O` [Example 139, dihydrochloride], the IC50 is 2.6 µM.

Regarding `CCc1cc(-c2ccc(CNCC3CCN(Cc4cc(F)cc(F)c4)CC3)s2)c(C)[nH]c1=O` [Example 140, 5-(5-{[1-(3,5-Difluoro-benzyl)-)-piperidin-4-ylmethyl]-amino}methyl-thiophen-2-yl)-3-ethyl-6-methyl-1H-pyridin-2-one hydrochloride], the IC50 came to 0.64 µM.

For `CCc1cc(-c2ccc(CNCCc3ccccn3)s2)c(C)[nH]c1=O` [Example 141, 3-Ethyl-6-methyl-5-{5-[(2-pyridin-2-ylethylamino)methyl]thiophen-2-yl}-1H-pyridin-2-one dihydrochloride], the IC50 was 0.54 µM.

With `CCc1cc(-c2ccc(CNC3CC3)s2)c(C)[nH]c1=O` [Example 142, 5-(5-Cyclopropylaminomethyl-thiophen-2-yl)-3-ethyl-6-methyl-1H-pyridin-2-one hydrochloride], the IC50 is 2.1 µM.

Turning to `CCc1cc(-c2ccc(CNCCC3=CCCCC3)s2)c(C)[nH]c1=O` [Example 144, 5-{5-[(2-Cyclohex-1-enyl-ethylamino)-methyl]thiophen-2-yl}-3-ethyl-6-methyl-1H-pyridin-2-one hydrochloride], the 50% inhibitory concentration (IC50) is 0.62 µM.

Turning to `CCc1cc(-c2ccc(CNc3cc(F)cc(F)c3)s2)c(C)[nH]c1=O` [Example 145, 5-{5-[(3,5-Difluoro-phenylamino)-methyl]thiophen-2-yl}-3-ethyl-6-methyl-1H-pyridin-2-one hydrochloride], the IC50 was 4 µM.

For the compound `CCc1cc(-c2ccc(CNC(C)C(C)C)s2)c(C)[nH]c1=O` (stereo not shown) [Example 147, 5-{5-[(3-methylbut-2-ylamino)methyl]thiophen-2-yl}-3-ethyl-6-methyl-1H-pyridin-2-one hydrochloride], the IC50 was determined as 0.49 µM.

Regarding `CCc1cc(-c2ccc(CN3CCC4(CC3)OCCO4)s2)c(C)[nH]c1=O` [Example 149, 5-[5-(1,4-Dioxa-8-aza-spiro[4,5]dec-8-ylmethy)-thiophen-2-yl)-3-ethyl-6-methyl-1H-pyridin-2-one hydrochloride], the IC50 was 0.79 µM.

Take `CCc1cc(-c2ccc(CN3CCC(=O)CC3)s2)c(C)[nH]c1=O` [Example 150, 3-Ethyl-6-methyl-5-[5-(4-oxo-piperidin-1-ylmethy)-thiophen-2-yl]-1H-pyridin-2-one hydrochloride]: the IC50 came to 1.3 µM.

`CCc1cc(-c2ccc(CNC3CCN(Cc4ccccc4)CC3)s2)c(C)[nH]c1=O` [Example 151, 5-{5-[(1-Benzyl-piperidin-4-ylamino)-methyl]thiophen-2-yl}-3-ethyl-6-methyl-1H-pyridin-2-one dihydrochloride]: the IC50 stood at 0.92 µM.

`CCc1cc(-c2ccc(CNCc3ccncc3)s2)c(C)[nH]c1=O` [Example 152, 3-Ethyl-6-methyl-5-{5-{[(pyridin-4-ylmethyl)-amino]-methyl-thiophen-2-yl)-1H-pyridin-2-one dihydrochloride]: the IC50 worked out at 0.83 µM.

As for `CCc1cc(-c2ccc(CNCCCn3ccnc3)s2)c(C)[nH]c1=O` [Example 153, 3-Ethyl-6-methyl-5-{5-[(3-imidazol-1-yl-propylamino)-methyl]thiophen-2-yl)-1H-pyridin-2-one dihydrochloride], the IC50 was found to be 0.67 µM.

For `CCc1cc(-c2ccc(CNCCN3CCCC3)s2)c(C)[nH]c1=O` [Example 154, 3-Ethyl-6-methyl-5-{5-{[(2-pyrrolidin-1-ylethylamino)-methyl]thiophen-2-yl)-1H-pyridin-2-one dihydrochloride], the IC50 came to 0.53 µM.

Take `CCc1cc(-c2ccc(CNCCc3cnc[nH]3)s2)c(C)[nH]c1=O` [Example 155, 3-Ethyl-5-(5-{[(2-(3H-imidazol-4-yl)ethylamino]methyl}thiophen-2-yl)-6-methyl-1H-pyridin-2-one dihydrochloride]: the IC50 amounted to 0.71 µM.

`CCc1cc(-c2ccc(CNC3Cc4ccccc4C3)s2)c(C)[nH]c1=O` [Example 156, 3-Ethyl-5-[5-(indan-2-ylaminomethyl)-thiophen-2-yl]-6-methyl-1H-pyridin-2-one hydrochloride]: the IC50 came to 0.44 µM.

For the compound `CCc1cc(-c2ccc(CNCc3ccccc3)s2)c(C)[nH]c1=O` [Example 157, 5-[5-(Benzylamino-methyl)-thiophen-2-yl]-3-ethyl-6-methyl-1H-pyridin-2-one hydrochloride], the IC50 was 0.6 µM.

Turning to `CCc1cc(-c2ccc(CNCc3cc(F)cc(F)c3)s2)c(C)[nH]c1=O` [Example 158, 5-[5-(3,5-Difluorobenzylaminomethyl)thiophen-2-yl]-3-ethyl-6-methyl-1H-pyridin-2-one hydrochloride], the IC50 is 0.51 µM.

For the compound `CCc1cc(-c2ccc(CNC3CCN(Cc4ccccc4)C3)s2)c(C)[nH]c1=O` (stereo not shown) [Example 159, 5-{5-[(1-Benzyl-pyrrolidin-3-ylamino)-methyl]-thiophen-2-yl}-3-ethyl-6-methyl-1H-pyridin-2-one dihydrochloride], the IC50 was 0.72 µM.

In the case of `CCc1cc(-c2ccc(CN3CCC(N4CCCC4)CC3)s2)c(C)[nH]c1=O` [Example 160, 3-Ethyl-6-methyl-5-[5-(4-pyrrolidin-1-ylpiperidin-1-ylmethyl)-thiophen-2-yl]1-1H-pyridin-2-one dihydrochloride], the IC50 was 1.7 µM.

As for `CCc1cc(-c2ccc(CNCc3nccn3C)s2)c(C)[nH]c1=O` [Example 161, 3-Ethyl-6-methyl-5-(5-{[(1-methyl-1H-imidazol-2-yl)methyl)amino]methyl}-thiophen-2-yl)-1H-pyridin-2-one dihydrochloride], the IC50 amounted to 1.3 µM.

Regarding `CCc1cc(-c2ccc(CNCc3cccnc3)s2)c(C)[nH]c1=O` [Example 162, 3-Ethyl-6-methyl-5-{5-{[(pyridin-3-ylmethyl)amino]methyl}thiophen-2-yl)-1H-pyridin-2-one dihydrochloride], the IC50 was 0.52 µM.

Source of the values: patent US8173682B2, “Substituted pyridones as inhibitors of poly(ADP-ribose) polymerase (PARP)” (Aventis Pharmaceuticals Inc., priority 2004, dated 2012).
